Patent US12559529B2, “NPY2 receptor agonists” (Boehringer Ingelheim International GmbH, priority 2019, dated 2026)
pEC50: −log10 of the molar value.

Key:
human NPY2 receptor = biological target: T1, human NPY2 receptor (Homo sapiens, UniProt P49146); test: HTRF cAMP Gi assay, hY2R
T1 sequence (P49146 1-381): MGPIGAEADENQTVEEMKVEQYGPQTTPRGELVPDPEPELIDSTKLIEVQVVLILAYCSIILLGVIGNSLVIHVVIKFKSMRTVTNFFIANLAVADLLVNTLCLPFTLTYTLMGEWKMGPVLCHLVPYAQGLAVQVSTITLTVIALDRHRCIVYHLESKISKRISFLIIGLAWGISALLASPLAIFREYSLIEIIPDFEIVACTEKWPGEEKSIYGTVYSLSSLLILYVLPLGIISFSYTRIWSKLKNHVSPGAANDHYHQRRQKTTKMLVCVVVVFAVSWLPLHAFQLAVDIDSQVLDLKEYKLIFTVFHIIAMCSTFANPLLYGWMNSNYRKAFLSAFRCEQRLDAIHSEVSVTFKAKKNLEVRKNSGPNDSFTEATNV

[1] = biological target: T2, Human Neuropeptide Y2 Receptor (Homo sapiens, UniProt P49146); test: Radioligand binding competition assay (RLB); conditions: Table 2; read-out: hY2 RLB (nM) (Ex. 1)
T2 construct: purchased CHEMICON HTS066M
T2 sequence (P49146 1-381): T1 sequence (P49146 1-381)
Summary of the method: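 Membranes from cells expressing human Y2 receptor (0.5 μg protein/well) were incubated with radioligand and serially diluted peptides in 50 mM HEPES, 5 mM MgCl2, 1 mM CaCl2, 0.2% ovalbumin, pH 7.4, for 2 h at room temperature with shaking. Bound radioactivity was collected by filtration and counted; IC50 from sigmoidal nonlinear regression.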

Solubility determination = format: physicochemical
Procedure: The peptide was dissolved by shaking the filter unit horizontally at 600 rpm for 2 hours at room temperature. […] Both the control and sample were analysed with reversed phase chromatography. The area under the peak of the sample was compared to the control and the solubility was calculated based on that ratio. The pH was measured and recorded for each sample.

With `CC(C)CC(=O)N[C@@H](CCCNC(=N)N)C(=O)N1CCC[C@H]1C(=O)N[C@@H](CCC(=O)O)C(=O)N[C@@H](CCCCNC(=O)COCCOCCNC(=O)COCCOCCNC(=O)CC[C@H](NC(=O)CCCCCCCCCCCCCCCCC(=O)O)C(=O)O)C(=O)N1CCC[C@H]1C(=O)NCC(=O)N[C@@H](CCC(=O)O)C(=O)N[C@@H](CC(=O)O)C(=O)N[C@@H](C)C(=O)N[C@@H](CO)C(=O)N1CCC[C@H]1C(=O)N[C@@H](CCC(=O)O)C(=O)N[C@@H](CCC(=O)O)C(=O)N[C@@H](CC(C)C)C(=O)N[C@@H](CCC(N)=O)C(=O)N[C@@H](CCCNC(=N)N)C(=O)N[C@@H](Cc1ccc(O)cc1)C(=O)N[C@@H](Cc1ccc(O)cc1)C(=O)N[C@H](C(=O)N[C@@H](CO)C(=O)N[C@@H](CC(C)C)C(=O)N[C@@H](CCCNC(=N)N)C(=O)N[C@@H](C)C(=O)N[C@@H](Cc1ccc(O)cc1)C(=O)N[C@@H](Cc1ccc(O)cc1)C(=O)N[C@@H](CC(N)=O)C(=O)N[C@@H](Cc1c[nH]c2ccccc12)C(=O)N[C@@H](CC(C)C)C(=O)N[C@H](C(=O)N[C@@H](CCCNC(=N)N)C(=O)N[C@@H](CCC(N)=O)C(=O)N[C@@H](CCCNC(=N)N)C(=O)N[C@@H](Cc1ccc(O)cc1)C(N)=O)[C@@H](C)O)C(C)C` [Ref. 3, reference compound] the pEC50 (human NPY2 receptor) was 9.43, the Ki [1] was 1.69 nM and the “[final pH] of Sol pH 6 sample” value (Solubility determination; pH 6) was “[6.0]”. For the same compound, the “[final pH] of Sol pH 7 sample” value (Solubility determination; pH 7) was “[6.7]”.
